From ChEMBL document CHEMBL1147909, “Methylenedisalicylic acid derivatives: new PTP1B inhibitors that confer resistance to diet-induced obesity” (Bioorg Med Chem Lett, 2007) come the findings set out here.

For test [1], the target named is T1, Tyrosine-protein phosphatase non-receptor type 1 (Homo sapiens, UniProt P18031).
T1 sequence (P18031 whole entry): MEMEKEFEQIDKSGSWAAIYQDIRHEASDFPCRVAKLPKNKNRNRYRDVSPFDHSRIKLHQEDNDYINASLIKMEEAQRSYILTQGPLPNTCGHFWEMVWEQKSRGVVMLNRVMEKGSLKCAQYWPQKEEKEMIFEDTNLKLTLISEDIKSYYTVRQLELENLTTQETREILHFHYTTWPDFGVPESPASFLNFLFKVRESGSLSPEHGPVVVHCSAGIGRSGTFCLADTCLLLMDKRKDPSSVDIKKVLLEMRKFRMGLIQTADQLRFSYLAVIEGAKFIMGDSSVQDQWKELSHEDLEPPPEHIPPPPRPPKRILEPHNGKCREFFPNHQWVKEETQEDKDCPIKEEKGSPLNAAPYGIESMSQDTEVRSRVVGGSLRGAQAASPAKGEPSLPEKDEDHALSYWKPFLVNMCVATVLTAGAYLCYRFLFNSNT
Kind of test: Inhibition of PTP1B after 10 mins.

In test [2] the target is Tyrosine-protein phosphatase non-receptor type 6 (Homo sapiens, UniProt P29350). In words: Inhibition of SHP-1 catalytic domain.
Sequence of Tyrosine-protein phosphatase non-receptor type 6 (P29350 whole entry, the tested form may be a part): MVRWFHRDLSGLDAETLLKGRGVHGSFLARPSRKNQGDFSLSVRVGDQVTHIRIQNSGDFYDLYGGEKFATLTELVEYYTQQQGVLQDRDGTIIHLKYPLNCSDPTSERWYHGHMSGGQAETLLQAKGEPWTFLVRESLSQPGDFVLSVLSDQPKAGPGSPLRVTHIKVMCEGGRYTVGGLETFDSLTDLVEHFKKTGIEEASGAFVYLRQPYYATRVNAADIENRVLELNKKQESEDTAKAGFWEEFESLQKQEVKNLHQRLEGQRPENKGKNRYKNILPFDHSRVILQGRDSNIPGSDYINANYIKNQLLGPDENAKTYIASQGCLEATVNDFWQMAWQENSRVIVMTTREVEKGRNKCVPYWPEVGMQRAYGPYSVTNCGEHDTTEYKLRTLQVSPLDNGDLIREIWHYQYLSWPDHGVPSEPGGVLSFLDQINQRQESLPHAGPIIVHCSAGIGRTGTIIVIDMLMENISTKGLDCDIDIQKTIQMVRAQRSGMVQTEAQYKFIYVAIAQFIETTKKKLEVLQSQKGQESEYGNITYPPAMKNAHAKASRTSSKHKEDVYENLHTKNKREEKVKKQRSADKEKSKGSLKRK
In test [3] the target is T2, Tyrosine-protein phosphatase non-receptor type 2 (Homo sapiens, UniProt P17706).
T2 sequence (P17706 whole entry): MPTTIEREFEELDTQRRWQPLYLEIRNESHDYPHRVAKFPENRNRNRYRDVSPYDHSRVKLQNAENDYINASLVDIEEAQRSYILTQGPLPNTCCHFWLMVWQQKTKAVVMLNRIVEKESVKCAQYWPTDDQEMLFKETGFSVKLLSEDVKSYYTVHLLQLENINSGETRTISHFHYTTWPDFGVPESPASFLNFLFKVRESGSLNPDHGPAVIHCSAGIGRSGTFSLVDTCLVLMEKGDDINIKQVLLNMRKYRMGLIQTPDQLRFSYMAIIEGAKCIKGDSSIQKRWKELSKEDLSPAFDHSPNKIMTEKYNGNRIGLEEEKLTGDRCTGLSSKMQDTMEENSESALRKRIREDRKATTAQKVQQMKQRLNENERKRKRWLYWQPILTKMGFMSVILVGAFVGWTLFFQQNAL
Kind of test: Inhibition of TC-PTP.

In test [4] the target is T3, Tyrosine-protein phosphatase 1 (Saccharomyces cerevisiae S288c, UniProt P25044).
T3 sequence (P25044 whole entry): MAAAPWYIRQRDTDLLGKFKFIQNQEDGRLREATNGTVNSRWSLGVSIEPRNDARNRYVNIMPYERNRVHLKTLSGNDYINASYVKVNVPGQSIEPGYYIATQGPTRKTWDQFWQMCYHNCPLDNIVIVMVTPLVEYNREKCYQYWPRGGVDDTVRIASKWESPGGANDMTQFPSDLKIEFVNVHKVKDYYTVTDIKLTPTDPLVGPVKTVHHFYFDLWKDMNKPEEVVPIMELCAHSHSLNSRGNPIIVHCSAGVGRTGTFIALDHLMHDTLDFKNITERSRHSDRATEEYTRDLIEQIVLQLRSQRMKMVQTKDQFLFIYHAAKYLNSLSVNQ
In words: Inhibition of yeast PTP1.

The species entered for a further test is Homo sapiens. In words: Selectivity for PTP1B over TC-PTP.
A short description of test [5]: Inhibition of LAR Tyrosine phosphatase D1. The arrangement: species or system Homo sapiens.
In test [6] the test system is Mus musculus. In words: Effect on high fat diet induced obesity in C57BL/6J Jms Slc mouse assessed as retroperitoneal adipose tissue weight at 5 g/kg. Format: functional.
Test [7] has as its system Mus musculus. In words: Effect on high fat diet induced obesity in C57BL/6J Jms Slc mouse assessed as epididymal adipose tissue weight at 5 g/kg. Format: functional.
Test [8] relates to Mus musculus. Kind of test: Effect on high fat diet induced obesity in C57BL/6J Jms Slc mouse assessed as liver weight at 5 g/kg. Format: functional.
Test [9] concerns Mus musculus. Kind of test: Effect on high fat diet induced obesity in C57BL/6J Jms Slc mouse assessed as body weight at 5 g/kg. The format is functional.

The IC50 is the concentration needed to halve the response being measured. For orientation: Ki means the dissociation constant of the complex between target and ligand, obtained from inhibition or displacement. A high value points to a looser hold on the target. For `O=C(O)c1cc(Cc2cc(Cc3ccccc3)c(O)c(C(=O)O)c2)cc(Cc2ccccc2)c1O`, the half-inhibitory concentration (IC50) in test [1] was 15 µM; in test [2], 32 µM; in test [3], 146 µM; in test [4], 103 µM; in test [5] it was above 2000 µM. Further, the Ki was found to be 6.3 µM in [1], 14 µM in [2] and 25 µM in [3]. For the same compound, the Selectivity ratio in the test filed under Homo sapiens was above 10.
In turn, `O=C(O)c1cc(Cc2cc(C(=O)O)c(O)c(-c3ccco3)c2)cc(-c2ccco2)c1O` came in with an IC50 in test [1] of 39 µM.
In [1], `O=C(O)C(=O)Nc1sc2c(c1C(=O)O)CCNC2` returned an IC50 of 500 µM and an inhibition constant (Ki) of 11.5 µM.
In the case of `O=C(O)c1cc(Cc2cc(C(=O)O)c(O)c(-c3ccccc3)c2)cc(-c2ccccc2)c1O`, the Activity came out at 0.26 g in the test with Mus musculus [6], 0.86 g with Mus musculus [7], 1.03 g with Mus musculus [8] and 29.2 g in the test on Mus musculus [9]. The IC50 in test [1] is 20 µM; in test [2] it was 51 µM; in [3], 291 µM; in [4], 234 µM; in test [5], above 2000 µM. For the same compound, the Ki turned out to be 9.4 µM in test [1], 17 µM in test [2] and 64 µM in [3]. The Selectivity ratio in the test filed under Homo sapiens was above 10.
In the case of `O=C(O)c1cc(Cc2cc(Cl)c(O)c(C(=O)O)c2)cc(Cl)c1O`, the IC50 in [1] was 242 µM.
Turning to `Cc1cc(Cc2cc(C)c(O)c(C(=O)O)c2)cc(C(=O)O)c1O`, the IC50 in [1] is above 1000 µM.
The same measure, in the same setting: the result for `COc1cc(Cc2cc(OC)c(O)c(C(=O)O)c2)cc(C(=O)O)c1O` reads above 1000 µM.
Same read-out and setting: the value for `O=C(O)c1cc(Cc2cc(Br)c(O)c(C(=O)O)c2)cc(Br)c1O` was 78 µM.
